Where two headings read alike, the source gives them in different places.
Key:
Assay type in all cases: biochemical
[1] = target: T1, Recombinant human calpain I (Homo sapiens, UniProt P07384); assay: Inhibition of calpain I activity; conditions: Table III
T1 construct: made in house
T1 sequence (P07384 1-714): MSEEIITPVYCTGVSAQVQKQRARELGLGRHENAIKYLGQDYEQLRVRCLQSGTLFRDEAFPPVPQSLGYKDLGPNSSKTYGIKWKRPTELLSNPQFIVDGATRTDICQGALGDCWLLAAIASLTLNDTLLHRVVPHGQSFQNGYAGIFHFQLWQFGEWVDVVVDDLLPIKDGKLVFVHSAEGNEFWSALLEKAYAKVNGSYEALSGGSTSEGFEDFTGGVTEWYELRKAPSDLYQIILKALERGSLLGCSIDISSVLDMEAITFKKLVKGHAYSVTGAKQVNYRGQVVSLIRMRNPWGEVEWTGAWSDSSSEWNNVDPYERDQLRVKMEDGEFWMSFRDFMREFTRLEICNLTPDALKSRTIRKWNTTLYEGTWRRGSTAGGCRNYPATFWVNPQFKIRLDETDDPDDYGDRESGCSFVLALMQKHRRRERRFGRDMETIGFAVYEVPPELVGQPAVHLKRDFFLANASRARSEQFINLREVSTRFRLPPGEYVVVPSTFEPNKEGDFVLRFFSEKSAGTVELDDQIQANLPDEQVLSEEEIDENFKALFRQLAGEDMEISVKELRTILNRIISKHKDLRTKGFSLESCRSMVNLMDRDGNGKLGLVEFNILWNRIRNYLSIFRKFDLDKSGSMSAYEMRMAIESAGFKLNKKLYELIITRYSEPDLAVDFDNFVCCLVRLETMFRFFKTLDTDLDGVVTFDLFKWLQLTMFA
Experimental: To evaluate inhibitory activity, stock solutions (40 times concentrated) of exemplary compounds of the invention were prepared in 100% anhydrous DMSO and 5 μL of each inhibitor preparation were aliquoted into each of three wells of a 96-well plate. Recombinant human calpain I, prepared by the method of Meyer et al. (Biochem. […] To start the reaction, 20 μL of 50 mM CaCl2 in assay buffer was added to all wells of the plate, excepting three, which were used as background signal baseline controls. Substrate hydrolysis was monitored every 5 minutes for a total of 30 minutes. […] Inhibition of calpain I activity was calculated as the percent decrease in the rate of substrate hydrolysis in the presence of inhibitor (VI) relative to the rate in its absence (VO). Comparison between VO and VI was made within the linear range for substrate hydrolysis. For screening, compounds were tested at 10, 1.0, and 0.1 μM. […] The results were plotted as % inhibition versus log inhibitor concentration and the IC50 was calculated from linear regression of the data. Apparent second order rate constants were determined from analysis of reaction progress curves under pseudo-first order conditions. Each determination represents the means of three or more independent single cuvette analyses continually monitored via a Perkin-Elmer LS50B spectrofluorimeter. The rate of inhibition of hydrolysis was obtained by fitting the curve to the exponential equation (1): […]

cathepsin B = target: T2, cathepsin B (Homo sapiens, UniProt P07858); assay: Inhibition of cathepsin B; conditions: Table III; for inhibition at 1 µM: read-out: Cat B % I @ 1 uM; for IC50: read-out: Cat B IC50
T2 construct: purchased Calbiochem 219364
Experimental: (§1) Additionally,the order of reagents added to the plate was altered because both enzymes are constitutively active. Following inhibitor addition to the plates, appropriate 2× concentrated stock dilutions of the enzyme preparations were made in assay buffer and 100 μl added to each well. The assay was initiated by addition of 100 μl of 2× concentrated stock dilution of substrate in assay buffer.

cathepsin L = target: T3, cathepsin L (Homo sapiens, UniProt P07711); assay: Inhibition of cathepsin L; conditions: Table III; 1 uM; read-out: Cat L % I @ 1 uM
T3 construct: purchased Calbiochem 219402
T3 sequence (P07711 114-288 limits assumed): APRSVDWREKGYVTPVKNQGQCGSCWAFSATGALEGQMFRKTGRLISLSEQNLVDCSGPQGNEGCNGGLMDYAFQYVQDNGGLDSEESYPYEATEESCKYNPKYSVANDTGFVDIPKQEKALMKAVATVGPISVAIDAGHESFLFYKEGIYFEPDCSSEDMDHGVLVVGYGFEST
T3 sequence (P07711 292-333 limits assumed): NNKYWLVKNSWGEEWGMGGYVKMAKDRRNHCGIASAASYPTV
Experimental: as §1

thrombin = target: T4, thrombin (Homo sapiens, UniProt P00734); assay: Inhibition of thrombin; conditions: Table III; 10 uM; read-out: Thrombin % I @ 10 uM
T4 construct: purchased Sigma Chem. Co. T-7009

α-chymotrypsin = target: T5, α-chymotrypsin (Bos taurus, UniProt P00766); assay: Inhibition of α-chymotrypsin; conditions: read-out: Chymotrypsin % I @ 10 uM
T5 construct: purchased Sigma Chem. Co. C-3142
Experimental: Additionally, because α-chymotrypsin is not a calcium sensitive enzyme and is constitutively active, following addition of inhibitor stocks to the 96 well plates, 100 μl of a 2-fold concentrated stock of enzyme in dilution buffer was first added and the reaction started by addition of 100 μl of a 2-fold concentrated stock of substrate in assay buffer. Substrate hydrolysis was monitored every 5 minutes up to 30 minutes using a Fluoroskan II ([…]).

Compound	IC50 [1] [nM]	inhibition at 0.1 µM [1] [%]	inhibition at 1 µM (cathepsin B) [%]	inhibition at 1 µM (cathepsin L) [%]	inhibition at 10 µM (thrombin) [%]	inhibition at 10 µM (α-chymotrypsin; Table III, 10 uM) [%]	IC50 (cathepsin B) [nM]	inhibition at 10 µM (α-chymotrypsin) [%]
O=C[C@H](Cc1ccccc1)NC(=O)[C@@H](COCc1ccccc1)NC(=O)c1ccccc1 [Compound 44]	280	29	62	100	7	0	–	–
O=C[C@H](Cc1ccccc1)NC(=O)[C@@H](COCc1ccccc1)NC(=O)C(c1ccccc1)c1ccccc1 [Compound 45]	85	55	100	100	7	5	–	–
O=C[C@H](Cc1ccccc1)NC(=O)[C@@H](COCc1ccccc1)NS(=O)(=O)c1ccc(F)cc1 [Compound 46]	24	90	100	100	15	6	–	–
CN(C)S(=O)(=O)N[C@H](COCc1ccccc1)C(=O)N[C@H](C=O)Cc1ccccc1 [Compound 47]	9	91	96	98	6	2	–	–
O=C[C@H](Cc1ccccc1)NC(=O)[C@@H](COCc1ccccc1)NS(=O)(=O)c1ccccc1 [Compound 48]	31	87	99	100	3	0	11	–
Cc1ccc(S(=O)(=O)N[C@H](COCc2ccccc2)C(=O)N[C@H](C=O)Cc2ccccc2)cc1 [Compound 49]	27	75	99	100	4	1	–	–
CCS(=O)(=O)N[C@H](COCc1ccccc1)C(=O)N[C@H](C=O)Cc1ccccc1 [Compound 50]	12	95	99	98	9	–	–	15
CC(=O)Nc1ccc(S(=O)(=O)N[C@H](COCc2ccccc2)C(=O)N[C@H](C=O)Cc2ccccc2)cc1 [Compound 51]	32	92	100	100	21	3	14	–
O=C[C@H](Cc1ccccc1)NC(=O)[C@@H](COCc1ccccc1)NS(=O)(=O)c1ccc2ccccc2c1 [Compound 52]	28	93	100	100	10	0	4	–
Cn1cnc(S(=O)(=O)N[C@H](COCc2ccccc2)C(=O)N[C@H](C=O)Cc2ccccc2)c1 [Compound 63]	75	41	–	100	1	40	–	–
CC(C)C[C@@H](C=O)NC(=O)[C@@H](CC(C)C)NS(C)(=O)=O [Compound 87]	95	23	86	96	–	–	–	–
